Here are results for 18 compounds from patent US20170210723A1, “MOLECULES HAVING PESTICIDAL UTILITY, AND INTERMEDIATES, COMPOSITIONS, AND PROCESSES, RELATED THERETO” (priority 2016, published 2017).

What all share (assay type): in vivo
Data set [1] deals with Yellow Fever Mosquito (Aedes aegypti). The data set can be described thus: Bioassays on Yellow Fever Mosquito larvae, 96-well plate. The conditions noted are these: from 4000 ppm DMSO master plate, about 1 day-old larvae, 3 days. How it is done:
Master plates containing 400 μg of a molecule dissolved in 100 μL of dimethyl sulfoxide (DMSO) (equivalent to a 4000 ppm solution) are used. A master plate of assembled molecules contains 15 μL per well. To this plate, 135 μL of a 90:10 water:acetone mixture is added to each well. A robot (Biomek® NXP Laboratory Automation Workstation) is programmed to dispense 15 μL aspirations from the master plate into an empty 96-well shallow plate (“daughter” plate). There are 6 reps (“daughter” plates) created per master. The created daughter plates are then immediately infested with YFM larvae.
The day before plates are to be treated, mosquito eggs are placed in Millipore water containing liver powder to begin hatching (4 g. into 400 mL). After the daughter plates are created using the robot, they are infested with 220 μL of the liver powder/larval mosquito mixture (about 1 day-old larvae). After plates are infested with mosquito larvae, a non-evaporative lid is used to cover the plate to reduce drying. Plates are held at room temperature for 3 days prior to grading. After 3 days, each well is observed and scored based on mortality. The results are indicated in the table entitled “Table ABC: Biological Results” (See Table Section). AGRICULTURALLY ACCEPTABLE ACID ADDITION SALTS, SALT DERIVATIVES, SOLVATES, ESTER DERIVATIVES, POLYMORPHS, ISOTOPES, AND RADIONUCLIDES

Data set [2] relates to Cabbage Looper (Trichoplusia ni). As to the kind of experiment: Bioassays on CL, 128-well diet tray assay. The settings on record: Trichoplusia ni, 168 h; 50 μg/cm^2 on artificial diet, second instar larvae, five to seven days; read-out: CL % Control (or Mortality) rating. The method, boiled down: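 Test molecule at 50 μg/cm^2 applied to the artificial diet surface (acetone-water) and dried; one to five second-instar T. ni larvae per well, eight wells per treatment, held at 25° C., 14:10 light-dark for five to seven days. Percent mortality averaged over wells.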

Data set [3] has as its system Beet Armyworm (Spodoptera exigua). As to the kind of experiment: Bioassays on BAW, 128-well diet tray assay. The settings on record: Spodoptera exigua, 168 h; 50 μg/cm^2 on artificial diet, second instar larvae, five to seven days; read-out: BAW % Control (or Mortality) rating.

Regarding `CCc1cc(/C=C/C(c2cc(Cl)c(Cl)c(Cl)c2)C(F)(F)F)ccc1C(=O)N[C@H](C)CSCC(F)(F)F` (stereo partly drawn) [F54, 2-Ethyl-4-((E)-4,4,4-trifluoro-3-(3,4,5-trichlorophenyl)but-1-en-1-yl)-N—((R)-1-((2,2,2-trifluoroethyl)thio)propan-2-yl)benzamide], the “YFM % Control (or Mortality) rating” value in data set [1] is reported as “A (80-100)”. The mortality at 50 µg/cm2 in data set [2] and in data set [3] was 50 to 100% throughout.
Regarding `Cc1cc(/C=C/C(c2cc(Br)cc(Br)c2)C(F)(F)F)ccc1C(=O)N[C@H](C)CSCC(F)(F)F` (stereo partly drawn) [F57, 4-((E)-3-(3,5-Dibromophenyl)-4,4,4-trifluorobut-1-en-1-yl)-2-methyl-N—((R)-1-((2,2,2-trifluoroethyl)thio)propan-2-yl)benzamide], the “YFM % Control (or Mortality) rating” value in data set [1] is given as “A (80-100)”. Moreover, the mortality at 50 µg/cm2 in data set [2] and in data set [3] was 50 to 100% each time.
As for `C[C@H](C[S+]([O-])CC(F)(F)F)NC(=O)c1ccc(/C=C/C(c2cc(Br)cc(Br)c2)C(F)(F)F)cc1C(F)(F)F` (stereo partly drawn) [F60, 4-((E)-3-(3,5-Dibromophenyl)-4,4,4-trifluorobut-1-en-1-yl)-N-((2R)-1-((2,2,2-trifluoroethyl)sulfinyl)propan-2-yl)-2-(trifluoromethyl)benzamide], the “YFM % Control (or Mortality) rating” value in data set [1] is given as “A (80-100)”. In addition, the mortality at 50 µg/cm2 in data set [2] and in data set [3] was 50 to 100% each time.
For `C[C@H](CS(=O)(=O)CC(F)(F)F)NC(=O)c1ccc(/C=C/C(c2cc(Br)cc(Br)c2)C(F)(F)F)cc1C(F)(F)F` (stereo partly drawn) [F61, 4-((E)-3-(3,5-Dibromophenyl)-4,4,4-trifluorobut-1-en-1-yl)-N—((R)-1-((2,2,2-trifluoroethyl)sulfonyl)propan-2-yl)-2-(trifluoromethyl)benzamide], the “YFM % Control (or Mortality) rating” value in data set [1] is “A (80-100)”. Besides, the mortality at 50 µg/cm2 in data set [2] and in data set [3] was 50 to 100% in each case.
For `CCSC[C@@H](C)NC(=O)c1ccc(/C=C/C(c2cc(Cl)c(Cl)c(Cl)c2)C(F)(F)F)cc1C(F)(F)F` (stereo partly drawn) [F62, N—((R)-1-(Ethylthio)propan-2-yl)-4-((E)-4,4,4-trifluoro-3-(3,4,5-trichlorophenyl)but-1-en-1-yl)-2-(trifluoromethyl)benzamide], the “YFM % Control (or Mortality) rating” value in data set [1] is recorded as “A (80-100)”. Also, the mortality at 50 µg/cm2 in data set [2] and in data set [3] was 50 to 100% in each case.
As for `O=C(NC1(C[S+]([O-])CC(F)(F)F)CC1)c1ccc(/C=C/C(c2cc(Cl)c(Cl)c(Cl)c2)C(F)(F)F)cc1C(F)(F)F` (stereo not drawn) [F63, (E)-4-(4,4,4-Trifluoro-3-(3,4,5-trichlorophenyl)but-1-en-1-yl)-N-(1-(((2,2,2-trifluoroethyl)sulfinyl)methyl)cyclopropyl)-2-(trifluoromethyl)benzamide], in data set [1], the “YFM % Control (or Mortality) rating” value is recorded as “A (80-100)”. The mortality at 50 µg/cm2 in data set [2] and in data set [3] was 50 to 100% each time.
For `C[C@H](CSCC(F)(F)F)NC(=O)c1ccc(/C=C/C(c2cc(Br)cc(Br)c2)C(F)(F)F)cc1Cl` (stereo partly drawn) [F64, 2-Chloro-4-((E)-3-(3,5-dibromophenyl)-4,4,4-trifluorobut-1-en-1-yl)-N—((R)-1-((2,2,2-trifluoroethyl)thio)propan-2-yl)benzamide], in data set [1], the “YFM % Control (or Mortality) rating” value is listed as “A (80-100)”. Besides, the mortality at 50 µg/cm2 in data set [2] and in data set [3] was 50 to 100% in each case.
For the compound `C[C@H](CS(=O)(=O)CC(F)(F)F)NC(=O)c1ccc(/C=C/C(c2cc(Br)cc(Br)c2)C(F)(F)F)cc1Cl` (stereo partly drawn) [F65, 2-Chloro-4-((E)-3-(3,5-dibromophenyl)-4,4,4-trifluorobut-1-en-1-yl)-N—((R)-1-((2,2,2-trifluoroethyl)sulfonyl)propan-2-yl)benzamide], the “YFM % Control (or Mortality) rating” value in data set [1] was “A (80-100)”. In addition, the mortality at 50 µg/cm2 in data set [2] and in data set [3] was 50 to 100% throughout.
`Cc1cc(/C=C/C(c2cc(Br)cc(Br)c2)C(F)(F)F)ccc1C(=O)N[C@H](C)CS(=O)(=O)CC(F)(F)F` (stereo partly drawn) [F66, 4-((E)-3-(3,5-Dibromophenyl)-4,4,4-trifluorobut-1-en-1-yl)-2-methyl-N—((R)-1-((2,2,2-trifluoroethyl)sulfonyl)propan-2-yl)benzamide]: in data set [1], the “YFM % Control (or Mortality) rating” value was “A (80-100)”. The mortality at 50 µg/cm2 in data set [2] and in data set [3] was 50 to 100% in each case.
With `C[C@H](CSCC(F)(F)F)NC(=O)c1ccc(/C=C/C(c2cc(Cl)c(Cl)c(Cl)c2)C(F)(F)F)cc1Cl` (stereo partly drawn) [F67, 2-Chloro-4-((E)-4,4,4-trifluoro-3-(3,4,5-trichlorophenyl)but-1-en-1-yl)-N—((R)-1-((2,2,2-trifluoroethyl)thio)propan-2-yl)benzamide], the “YFM % Control (or Mortality) rating” value in data set [1] was “A (80-100)”. Moreover, the mortality at 50 µg/cm2 in data set [2] and in data set [3] was 50 to 100% each time.
`CC[S+]([O-])C[C@@H](C)NC(=O)c1ccc(/C=C/C(c2cc(Cl)c(Cl)c(Cl)c2)C(F)(F)F)cc1C(F)(F)F` (stereo partly drawn) [F69, N-((2R)-1-(Ethylsulfinyl)propan-2-yl)-4-((E)-4,4,4-trifluoro-3-(3,4,5-trichlorophenyl)but-1-en-1-yl)-2-(trifluoromethyl)benzamide]: in data set [1], the “YFM % Control (or Mortality) rating” value is “A (80-100)”. Moreover, the mortality at 50 µg/cm2 in data set [2] and in data set [3] was 50 to 100% each time.
For `CCCSC[C@@H](C)NC(=O)c1ccc(/C=C/C(c2cc(Cl)c(Cl)c(Cl)c2)C(F)(F)F)cc1C(F)(F)F` (stereo partly drawn) [F70, N—((R)-1-(Propylthio)propan-2-yl)-4-((E)-4,4,4-trifluoro-3-(3,4,5-trichlorophenyl)but-1-en-1-yl)-2-(trifluoromethyl)benzamide], the “YFM % Control (or Mortality) rating” value in data set [1] is “A (80-100)”. Moreover, the mortality at 50 µg/cm2 in data set [2] and in data set [3] was 50 to 100% in each case.
For the compound `CCc1cc(/C=C/C(c2cc(Cl)c(Cl)c(Cl)c2)C(F)(F)F)ccc1C(=O)N[C@H](C)CS(=O)(=O)CC(F)(F)F` (stereo partly drawn) [F71, 2-Ethyl-4-((E)-4,4,4-trifluoro-3-(3,4,5-trichlorophenyl)but-1-en-1-yl)-N—((R)-1-((2,2,2-trifluoroethyl)sulfonyl)propan-2-yl)benzamide], the “YFM % Control (or Mortality) rating” value in data set [1] is listed as “A (80-100)”. The mortality at 50 µg/cm2 in data set [2] and in data set [3] was 50 to 100% throughout.
Take `C[C@H](C[S+]([O-])CC(F)(F)F)NC(=O)c1ccc(/C=C/C(c2cc(Br)cc(Br)c2)C(F)(F)F)cc1Cl` (stereo partly drawn) [F72, 2-Chloro-4-((E)-3-(3,5-dibromophenyl)-4,4,4-trifluorobut-1-en-1-yl)-N-((2R)-1-((2,2,2-trifluoroethyl)sulfinyl)propan-2-yl)benzamide]: the “YFM % Control (or Mortality) rating” value in data set [1] is “A (80-100)”. The mortality at 50 µg/cm2 in data set [2] and in data set [3] was 50 to 100% in each case.
`Cc1cc(/C=C/C(c2cc(Br)cc(Br)c2)C(F)(F)F)ccc1C(=O)N[C@H](C)C[S+]([O-])CC(F)(F)F` (stereo partly drawn) [F73, 4-((E)-3-(3,5-Dibromophenyl)-4,4,4-trifluorobut-1-en-1-yl)-2-methyl-N-((2R)-1-((2,2,2-trifluoroethyl)sulfinyl)propan-2-yl)benzamide]: the “YFM % Control (or Mortality) rating” value in data set [1] is listed as “A (80-100)”. In addition, the mortality at 50 µg/cm2 in data set [2] and in data set [3] was 50 to 100% throughout.
In the case of `CC(C)CSC[C@@H](C)NC(=O)c1ccc(/C=C/C(c2cc(Cl)c(Cl)c(Cl)c2)C(F)(F)F)cc1C(F)(F)F` (stereo partly drawn) [F85, N—((R)-1-(Isobutylthio)propan-2-yl)-4-((E)-4,4,4-trifluoro-3-(3,4,5-trichlorophenyl)but-1-en-1-yl)-2-(trifluoromethyl)benzamide], the “YFM % Control (or Mortality) rating” value in data set [1] is reported as “A (80-100)”. The mortality at 50 µg/cm2 in data set [2] and in data set [3] was 50 to 100% throughout.
As to `CC(C)SC[C@@H](C)NC(=O)c1ccc(/C=C/C(c2cc(Cl)c(Cl)c(Cl)c2)C(F)(F)F)cc1C(F)(F)F` (stereo partly drawn) [F86, N-((R)-1-(Isopropylthio)propan-2-yl)-4-((E)-4,4,4-trifluoro-3-(3,4,5-trichlorophenyl)but-1-en-1-yl)-2-(trifluoromethyl) benzamide], the “YFM % Control (or Mortality) rating” value in data set [1] was “A (80-100)”. The mortality at 50 µg/cm2 in data set [2] and in data set [3] was 50 to 100% each time.
On to `CC(C)C[S+]([O-])C[C@@H](C)NC(=O)c1ccc(/C=C/C(c2cc(Cl)c(Cl)c(Cl)c2)C(F)(F)F)cc1C(F)(F)F` (stereo partly drawn) [F87, N-((2R)-1-(Isobutylsulfinyl)propan-2-yl)-4-((E)-4,4,4-trifluoro-3-(3,4,5-trichlorophenyl)but-1-en-1-yl)-2-(trifluoromethyl)benzamide], for which the “YFM % Control (or Mortality) rating” value in data set [1] is “A (80-100)”. The mortality at 50 µg/cm2 in data set [2] and in data set [3] was 50 to 100% throughout.
